Measured values taken from article PMC7598995, “HT-SuMD: making molecular dynamics simulations suitable for fragment-based screening. A comparative study with NMR” (Journal of Enzyme Inhibition and Medicinal Chemistry, 2020).

Target: T1, Bcl-XL (Homo sapiens, UniProt Q07817)
T1 construct: gene BCL2L1; human Bcl-XL lacking the C-terminus domain (Δ209-233), 6His-tagged
Test: NMR: […] SOFAST-HMQC titration, plus STD and WaterLOGSY
Type: binding

T1 sequence (Q07817 1-208): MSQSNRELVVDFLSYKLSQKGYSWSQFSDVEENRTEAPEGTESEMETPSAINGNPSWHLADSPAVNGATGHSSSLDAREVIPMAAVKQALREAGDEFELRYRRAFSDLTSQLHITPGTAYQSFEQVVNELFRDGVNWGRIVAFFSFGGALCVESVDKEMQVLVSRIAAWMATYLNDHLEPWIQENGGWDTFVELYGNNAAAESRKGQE

`Oc1ccccc1Cc1ccccc1` [compound 222, fragment 222] was tested. Which Kd did it give?
Its Kd is 1 ± 0.4 mM.
